One series relates to C6 cells. As to the kind of experiment: Cell viability / gliotoxicity in C6. The class given is cell-based. The settings on record: for C6 death relative to astrocytes: cytoplasmic exosaminidase; for inhibition of XTT conversion compared with astrocytes: C6, 24 hours of treatment. The protocol:
(§1) Cells were treated for 48 hours accordingly to axis labels. At the end of the incubation time cells were prepared for the assay according to the manufacturer instructions. Luminescence values were then converted to % of survival.
(§2) Cells were treated for 48 h with the indicated concentrations of the agents. Astrocytes death was limited to 30% or lower. Suprisingly, C6 death was 3 folds higher than in astrocytes at 24 h and increased at 5 folds at 48 h. Data in U78-MG are similar to the C6 data although the effect was slightly lower but always at least 2 to 4 folds the effect seen in astrocytes.
(§3) In order to verify how the hypersensitivity of this signaling pathway in glioma cells affects the survival of the cells, viability assessments were performed using at least three unrelated biochemical tests. Initially, a commercially available kit (Cell Titer Glow) was used in the high throughput screening center for cytotoxicity screening. This test is amenable to high throughput screening techniques and, therefore, can be used for follow up of selected compounds in high or medium throughput settings. […] Since, THAP inhibits SERCA, an ATPase, and it can affect ATP levels directly the effect of THAP and TUN on these 3 cells types was also assessed using a commercially available kit that assesses metatetrazolium salts conversion (XTT). XTT assesses cell viability by probing mitochondrial integrity. […] Finally, viability of U87-MG was also assessed using a system measuring the activity of a house keeping cytosolic enzyme involved in glucose metabolism. Also using this detection system it was evident that glioma cells both C6 and U87-MG were greatly affected by induction of ERSR (FIG. 13). It is well known that prolonged ERSR leads to apoptosis, even in the presence of elevated GRP78 expression if that is coupled to significant protein unfolding. In rat cells this process is actuated via caspase 12 and ultimately via caspase 3 activation. Experiments were conducted in order to determine if the observed effect on cell viability was also paralleled by caspase 12 activation, and if there were differences, as indicated by preliminary viability data, between normal and glioma cells.

A further series concerns U87-MG cells. As to the kind of experiment: Cell viability / gliotoxicity in U87-MG. It counts as cell-based. The procedure:
as §1, §2
as §3, with “Experiments were conducted in order to determine if the observed effect on cell viability was also paralleled by caspase 12 activation, and if there were differences, as indicated by preliminary viability data, between normal and glioma cells.” left out

A further series concerns GRP78 promoter. As to the kind of experiment: GRP78-luc reporter assay in stably transfected U87-MG clone A5. The class given is cell-based, human. The settings on record: for GRP78 promoter driven luciferase (GRP78-luc) expression: result in words. The protocol: The promoter region contains the sequence of the GRP78 promoter from −139 to +7. In this part of the promoter there are three ER stress responsive elements and the TATA box to which is linked in frame the firefly luciferase sequence.
Compounds were plated in half area 96 well plates at the final concentration of 2 μM in 5 μl of media. Cells were added in 45 μl afterwards at the density of 5000/well. Plates were read after 16 h in an Envision high efficiency plate reader. Results are represented as a plate layout in which different shadings indicate the different rows and the number indicate the different lines. As a standard negative and positive controls were located in the outer columns.
A construct coding a large part of the human GRP78 promoter, attached to the reporter gene firefly luciferase was used (see FIG. 16 for a schematic) (Yoshida et al., 1998).
The promoter region contains the sequence of the GRP78 promoter from −139 to +7. In this part of the promoter there are three ER stress responsive elements and the TATA box to which is linked in frame the firefly luciferase sequence (FIG. 16)(Yoshida et al., 1998). The construct, which was cloned in an expression vector, was transfected into E. Coli, amplified, purified and checked it by enzymatic digestion. Thereafter, C6 and U87-MG were transiently transfected with the plasmid. After 24 hours the cells were challenged with THAP and TUN for 24 hours. Although, in transient transfection only a small part of the cell population expresses the transduced gene, a significant induction by THAP and TUN was detected over 24 hours. Armed with these encouraging data human glioma cells U87-MG were transfected with both the above described construct and a construct carrying resistance to blasticidin. The sensitivity of these cells to the antibiotic has previously been assessed. 24 hours after the transfection the antibiotic at its 75% inhibitory concentration was added. The cells were given time to proliferate. Two pools called P2 and P5 were selected and luciferase expression was assessed. […] Clones from these two pools were isolated. Luciferase expression in the clones was characterized and a clone called A5, in which baseline expression of the construct was reasonably low and induction with two positive controls was large and consistent, was selected. This clone, several back up clones, and the pools were amplified and frozen in sufficient amounts to guarantee continuity in case needed. Next, the effect of the incubation time on luciferase induction was assessed. Since this assay can be affected by false negative due to toxicity of hit compounds, the incubation times were kept as short as possible. Therefore, several incubation times were tested, including 8, 16 and 24 h. The goal was not to incubate longer than 24 hours because toxicity starts to develop at that time point. […] At this time point the induction is about 6-7 fold. Previously, using a different assay, a half a million compound library was screened very easily using 2.5 thousands cells per well in 1536 plates. […] With this cell number the dynamic range is large and the fold of induction of 6-7 is maintained.
It is common practice in the field of high throughput screening to assess the so called z number of the assay. This statistical parameter indicates the suitability of a given assay for high throughput screening. The z-value in a word describes the likelihood of a single point hit not to be false positive. The z value is a number lower than or equal to one. Values above 0.5 indicate a robust assay. Values below 0.5 but above 0 indicate an assay that probably needs to be run in duplicate. Negative values indicate assays whose predictability is very low. Z values are usually determined in a high density format plate usually a 96 well plate in manual conditions or a 384-1536 plate format in automated liquid handling environment. Z value determination has been performed using half area 96 well plates in manual mode. […]
(Reporter assays use an easily measured gene product as a stand-in for the process of interest.)

The subject of a further series is caspase 12. As to the kind of experiment: Procaspase 12 cleavage in astrocytes. The class given is cell-based, rat. The protocol:
Cells were treated with the agents as indicated in the x axis. Subsequently cells were harvested and protein was extracted and then separated via SDS-PAGE and immunoblotted. The arrow highlights the 45 kDa band that results from cleavage of procaspase 12 and corresponding to the active caspase.
Thereafter, cells were harvested and protein extracted. Procaspase 12 band at 65 kDa was identified. In some of the treatments, the active product at 45 kDa was also detected. […] Conversely, in C6, higher GRP78 levels and the cell environment reflect significant caspase activation. […] Caspase activation in ERSR conditions was also confirmed with a TUNEL based apoptosis detection system in C6. C6 were treated with THAP for 24 hours and thereafter processed for TUNEL accordingly to manufacturer instructions. Staurosporin, a well known inducer of apoptosis in glial cells, was also included as a positive control. High resolution images of the experiments were acquired and image morphometric analysis was performed to determine quantitative parameters of the staining as previously described (Pascale et al., 2004, “Translocation of protein kinase C-betaII in astrocytes requires organized actin cytoskeleton and is not accompanied by synchronous RACK1 relocation.” Glia 46(2): 169-82). […]

The mark [1] stands for this setting: same concentration range as GRP78-luc increase.

“Also recorded” adds a separate entry of the source. Like-named read-outs stand apart in the source and are kept apart here.

On to `C/C=C(/C)C(=O)O[C@H]1C(C)=C2[C@H]([C@@H]1OC(=O)CCCCCCC)[C@@](C)(OC(C)=O)C[C@H](OC(=O)CCC)[C@@]1(O)[C@H]2OC(=O)[C@@]1(C)O` [THAP, thapsigargin], for which the “cytotoxicity compared with astrocytes (Cell Titer Glow, ATP content)” value in the series on C6 cells and in the series on U87-MG cells was “significantly higher cytotoxicity” each time. Further, the “C6 death relative to astrocytes” value came out at 3 folds with C6 cells (24 h) and 5 folds in the series with C6 cells (48 h). The “inhibition of XTT conversion compared with astrocytes” value in the series on C6 cells is “significantly higher inhibition of XTT conversion than astrocytes”. Also, the “GRP78 promoter driven luciferase (GRP78-luc) expression” value with GRP78 promoter is “increase of luciferase expression; also recorded: concentration dependent increase”. For the same compound, the “activation of caspase 12 in astrocytes” value in the series with caspase 12 is given as “completely unresponsive”.
In the case of `CCN(CC)CCCC(C)Nc1c2ccc(Cl)cc2nc2ccc(OC)cc12` (stereo not drawn) [quinacrine], the “gliotoxicity in C6” value with C6 cells (setting [1]) was “killed very effectively”. Further, the “gliotoxicity in U87-MG” value with U87-MG cells (setting [1]) is listed as “killed very effectively”. Moreover, in the series on GRP78 promoter, the “concentration up to which GRP78-luc expression increased, after which the toxic effect was preponderant” value is “up to 10 μM”. The “hit in Prestwick library screening (value above average of negative controls + 3 SD)” value with GRP78 promoter (2 μM, 5000 cells/well, read after 16 h) is on record as “potentially attractive lead compounds”.
In the case of tunicamycin, the “C6 death relative to astrocytes” value is 3 folds with C6 cells (24 h) and 5 folds in the series with C6 cells (48 h). Further, the “inhibition of XTT conversion compared with astrocytes” value in the series with C6 cells is “significantly higher inhibition of XTT conversion than astrocytes”. For the same compound, the “cytotoxicity compared with astrocytes (Cell Titer Glow, ATP content)” value was “significantly higher cytotoxicity” with C6 cells (C6, 48 hours) and “significantly higher cytotoxicity” in the series on U87-MG cells (U87-MG, 48 hours). The “GRP78 promoter driven luciferase (GRP78-luc) expression” value with GRP78 promoter is “increase of luciferase expression; also recorded: concentration dependent increase”. The “activation of caspase 12 in astrocytes” value in the series on caspase 12 is reported as “completely unresponsive”.

For the origin of these results see patent US20110060000A1, “ACRIDINE ANALOGS IN THE TREATMENT OF GLIOMAS” (priority 2009, published 2011).
